Entries after “also recorded” stand apart in the source; their conditions may differ.
Assays:
[1] = test system: Streptococcus pneumoniae DCC1335; test: Diffusion agar plate method, zone of inhibition; type: cell-based; settings: 62.5 μg/ml to 1000 μg/ml; FIG. 10
Method: (§1) Cell culture: Cultures of each bacterial strain were prepared by inoculating on Muller Hinton Agar (MHA) medium. After overnight incubation at 37° C., the density of the bacterial cells was compared to the McFarland turbidity standard (0.5).
(§2) Plates were swabbed with McFarland 0.5 inoculum of each test bacteria. […] serial dilutions of the peptides were prepared and 20 μl of compound were dropped onto the MHA. Antibiotic disc served as a positive control and vehicle alone served as the negative control. Plates were incubated for 16-18 hours and assessed for antibacterial activity. Zones of inhibition were measured for each TA dilution and compared with the controls.

[2] = test system: Acinetobacter baumannii ATCC 196062; test: Diffusion agar plate method, zone of inhibition; type: cell-based; settings: 62.5 μg/ml to 1000 μg/ml; FIG. 5, FIG. 10
Method: as §1, §2

[3] = test system: Normal human dermal fibroblasts (HNDF); test: Myofibroblast transition assay (MFT), aSMA immunofluorescence; type: cell-based; settings: for Myofibroblast transition (MFT), aSMA/cell, % change relative to control / MFT, Representative value from experiments (% change relative to control): N = 3; for Myofibroblast transition (MFT), aSMA/cell, % change relative to control: TGF-Beta induced HNDF, control of no peptide; for MFT, Representative value from experiments (% change relative to control): most effective significant concentration of 10, 100, 1000 ng/ml
Text: The myofibroblast transition (MFT) assay determines the effect of the peptide on inhibiting the transition of fibroblasts to myofibroblasts. The extracellular matrix produced by myofibroblasts may be produced in excess and may not be remodeled during tissue healing, leaving behind the fibrous connective tissue that forms a scar. Thus, the ability to regulate the degree of MFT may enable control of scarring. To determine if the peptides provided herein affect MFT, the following assay was performed.
Normal human dermal fibroblasts (HNDF) were cultured in high glucose Dulbecco's modified eagle medium (DMEM) supplemented with 10% fetal bovine serum (FBS) and 5 ml of 10,000 units of penicillin/streptomycin. Cells were cultured on 10 cm plates with media changes every 2 days. Cells were passaged in 0.25% Trypsin/EDTA after achieving 80% confluency.
To induce myofibroblast transition (MFT), normal human dermal fibroblasts (HNDFs) were split from 1-10 cm plates to 5-96 well plates. Cells were then allowed to grow the next day. The following day, cells were serum starved (1% FBS in DMEM) for 4 hours prior to adding 20 ng/ml of TGF-Beta to all wells of the plate. 1000 μM of Vactosertib (TEW-7197/EW-7197) was added to serve as a positive control and different concentrations of peptides were added to serve as the test articles. The cells were then exposed to the compounds for 5 more days before fixation.
The cells were fixed in paraformaldehyde (PFA) for 10-15 minutes, then washed 2× in PBS. Cells were blocked in 4% BSA for 30 minutes at 23° C. Cells were stained with the primary alpha-smooth muscle actin (aSMA) antibody (1:100) for 1 hour at 23° C. or left out at 4° C. overnight. Cells were rinsed 2× with BSA and then the secondary antibody mix was added: Alexa 488 (1:500) and DAPI (1:1000) for 30 min at 23° C. or 1 hr at 4° C. The plates were covered during staining, then rinsed 2× in BSA and stored in PBS.
Plates were imaged using the Celigo Imaging Cytometer by Nexcelcom. The ratio of fluorescent expression of alpha-smooth muscle actin (aSMA) and DAPI were quantified to determine the amount of aSMA/cell.
The change (normalized to the control) in MFT for each concentration is shown along with the p value for all experiments relative to the control of no peptide.

[4] = test system: interleukin-8 (IL-8) production in human fibroblasts; test: Fibroblast inflammation assay (LPS-induced IL-8, ELISA); type: cell-based; settings: LPS induction
Method: Inflammation in fibroblasts leads to the production of the chemokine interleukin-8 (IL-8), which stimulates fibroblast to myofibroblast transition (MFT) thereby enhancing scar formation. To determine if the peptides of the instant disclosure affect fibroblast response to inflammation and fibroblast IL-8 production, the following assays were performed.
Human fibroblasts were grown as described above. HNDFs were plated in 96 well plates at a concentration of 1×10^4 cells/well and allowed to incubate overnight. The next day cells were dosed with 5 μg/mL of LPS with and without the peptides. The negative control contained only media and vehicle, while the positive control was dosed with lipopolysaccharides (LPS) and dexamethasone (50 μg/ml). After 24 hours, the media was removed to measure IL6 and IL8 cytokine levels using ELISA. A standard curve was plotted in excel. All data were blank subtracted and then fit onto the curve to calculate cytokine concentrations.

[5] = test system: Keratinocytes; test: Keratinocyte scratch assay; type: cell-based, human; parameters: Keratinocyte scratch assay (% change relative to control): unit not given here
Method: HNDF fibroblasts were grown as described above. HNDFs were split from 1-10 cm plate to 4-24 well plates. Cells were allowed to grow until 90-100% confluent. Cells were serum starved (in 1% FBS in DMEM) for 4 hours before scratching using the Biotek Autoscratch machine. Cells were washed with PBS and the media was replaced with starvation media as a negative control, normal media (10% FBS) as positive control, and starvation media+compound as the test article. Cells were imaged at T=0 to serve as a baseline and fixed at T=48 hours. The images at 48 hours were imaged using phase contrast microscopy or with wheat germ agglutinin (WGA) stain.
Scratch assays were also performed on keratinocytes. Keratinocytes were grown to confluency and scratch assays were performed and measured as above with fibroblasts.

[6] = test system: skin after dermabrasion; test: Clinical study, Visioscan skin smoothness after dermabrasion; type: in vivo, human; settings: 8, 24, 48 and 72 hours after dermabrasion; vehicle cream base
Method: (§3) To determine the effects of exemplary peptides p1-p9 on tissue healing, a clinical study was performed that assessed transepidermal water loss (TEWL) and skin smoothness after dermabrasion.
(§4) This exemplary vehicle cream has a pH of 5.0, no odor and is white in color.
(§5) After 8 hours (T8h) of first product application, the subjects returned to the Institute, acclimated for 15 minutes and new Vapometer® to measure TEWL and Visioscan® VC 20Plus to measure skin smoothness was performed. After 1 (T1d), 2 (T2d) and 3 (T3d) days the subjects returned to the Institute, acclimated for 15 minutes and new measurements were performed. At time-points T1d and T2d new product application was performed by the technician on each test site. A total of 49 study subjects were included in the study and a total of 41 completed the study. The study included post-menopausal female subjects, aged between 50 and 65 years old (mean age: 59 years old), presenting Fitzpatrick Skin Types II-V.
Skin texture images were performed using the Visioscan® VC 20Plus, which allows taking pictures of the skin through magnifying lenses. The images enable a view of the skin topography, texture, dryness, desquamation, blemishes, pores, and cuticles.

[7] = test system: skin after dermabrasion; test: Clinical study, transepidermal water loss (TEWL, Vapometer) after dermabrasion; type: in vivo, human; settings: 8, 24, 48 hours, vehicle cream base
Method: as §3, §4
as §5, with “The study included post-menopausal female subjects, aged between 50 and 65 years old (mean age: 59 years old), presenting Fitzpatrick Skin Types II-V.” left out
The TEWL measurements were performed by using the Vapometer® device through a measurement probe. The readings were taken by applying the probe to the test sites, by resting it against the skin.
The measurements principle is diffusion, which indicates the mass of water per cm^2 that is transported in a given period of time, that is, the reading indicates the degree of water evaporation on the skin surface based on the sensitivity of hygro-sensors. The scale used is g/h/m^2, in which greater values of reading indicate higher evaporation. […]

[8] = test system: skin post-dermabrasion; test: Clinical study, erythema (Chromameter a* value) post-dermabrasion; type: in vivo, human; settings: 4 hours and 12 hours after application
Method: To determine the effects of the peptides on skin redness, the peptides P2, P3, and the combination of P2+P3 were tested at different concentration levels and subject's skin redness (erythema) was measured post-dermabrasion and 2, 4, 8, 12, 24, 48 and 72 hours post-application. The subjects were 30 post-menopausal female subjects, aged 50-65 years or younger, if post-menopausal. Enrolled subjects were to have Fitzpatrick Skin Types II-V. At baseline (post-dermabrasion) and 2, 4, 8, 12, 24, 48 and 72 hours post-application, skin redness was measured on 4 skin sites using the Chromameter® (Konica Minolta, Ramsey NJ). In order to determine any changes in skin redness, the a* value was analyzed. The a* value measures redness/erythema in the skin. A decrease in the a* value corresponded to a whitening/improvement (less red) effect and an increase in the a*value represented a darkening/worsening (redder) effect

[9] = test system: Acinetobacter baumannii ATCC 196062; test: Broth microdilution method (MIC50/MIC90); type: cell-based; settings: FIG. 11
Method: as §1
Ten-fold serial dilution of the peptide along with controls were prepared in Mueller Hinton Broth (MHB) media in a total volume of 50 μl in 96 well plates. Additionally, 50 μl of the diluted standard inoculum (1:150 in MHB media) were added to each of the well plates. The plates were read at OD600 nm. MIC50 and MIC90 curves were calculated from the plate readout. Each sample was run in duplicate.

Row | Substance | agar zone of inhibition, inhibiting bacterial growth [1] | agar zone of inhibition, inhibiting bacterial growth [2] | Myofibroblast transition (MFT), aSMA/cell, % change relative to control ([3]; 1000 ng/ml peptide) | MFT, Representative value from experiments (% change relative to control) [3] | skin smoothness (Visioscan) [6] | TEWL, skin barrier restoration [7] | skin redness (erythema), a* value [8] | other results
1 | GFWDIL WHIPHTIKG (GFWDILWHIPHTIKG) [MBdol15] | effective | effective |  |  |  |  |  | 
2 | QFCGPCGLRKRLRKFRNK [MBb11] |  |  | −0.419% | −0.419 p = (0.025) % |  |  |  | Myofibroblast transition (MFT), aSMA/cell, % change relative to control ([3]; 100 ng/ml peptide): −0.3537%; effect on IL-8 inhibition in fibroblasts relative to the negative control [4]: low but significant effect; increase of keratinocyte migration [5]: at least 39%; rate of keratinocyte migration [5]: significantly increased; Keratinocyte scratch assay (% change relative to control) ([5]; 1000 ng/ml, N = 8): 0.3892
3 | QRLLEAQAAT [Peptide P2] |  |  |  |  | visible; also recorded: most promising skin smoothness results | most promising TEWL assay results; also recorded: most promising results in skin barrier restoration | significantly improved erythema; also recorded: improve skin redness | 
4 | SKPAKAPE [Peptide P3] |  |  | −0.4914% | −0.4914 p = (0.006) % | visible; also recorded: most promising skin smoothness results | most promising TEWL assay results; also recorded: most promising results in skin barrier restoration | significantly improved erythema; also recorded: improve skin redness | aSMA decrease relative to the control (fluorescence, FIG. 3) ([3]; negative control of no peptide): 49%
5 | SLSRTLWAWLPRPCKSN [MBdol20] | effective | effective |  |  |  |  |  | MIC50 and MIC90, inhibiting bacterial growth in broth [9]: most effective
6 | TFMSHLFCCVQKRCDCSF [MBdol23] | effective | effective |  |  |  |  |  | 

From patent US20250108088A1, “REGENERATIVE PEPTIDES AND METHODS FOR USE THEREOF” (priority 2023, published 2025)
